Laboratory results from patent publication US9840494B2, “Quinazoline derivative” (Tianjin Hemay Oncology Pharmaceutical Co., Ltd., priority 2013, dated 2017).
pIC50: −log10 of the molar value.

Assays:
[1] = test system: human pancreatic cancer cell line AsPC-1; assay: In vitro inhibitory action on human tumor cells, AsPC-1 (MTT); type: cell-based; details: ASPC1, 72 h, MTT assay, usually 3 days
Method: Human epidermoid carcinoma cell line A431, human non-small cell lung cancer cell line HCC827, head and neck cancer cell lines Fadu and human pancreatic cancer cell line AsPC-1 were purchased from Cell Bank, Chinese Academy of Sciences.
3.2 Cell culture method: cells were cultured in the complete medium at 37° C. under 5% CO2 and saturated humidity until logarithmic growth phase, i.e., adherent cells substantially approach complete confluence, and then collected for subsequent assay. For the adherent cells, they were firstly digested with trypsin/EDTA to detach.
3.3 A certain number of cells were seeded into 96-well cell culture plates (hereinafter referred to as 96-well plates). […] Finally, total cellular protein in the wells was determined using SRB assay, or cell viability was determined with MTT assay.
3.3.1 The cell seeding concentration was determined by cell growth curve assay which completely simulates compound inhibition assay process. […]
3.4 Dilution and addition of compounds: the concentration of DMSO that can be tolerant by the cells was determined by DMSO tolerance assay, and thereby selecting the dilution and addition methods of compounds. The effects of different concentrations of DMSO on cell growth were determined by DMSO tolerance assay. […] Two methods are finally determined as follows. […]

[2] = Bioavailability assay in rats, Experiment IV (dimethylsulfonate); type: in vivo
Description: Experiment IV Bioavailability Assay for N-[4-(3-chloro-4-fluorophenylamino)-7-(2-methoxyethoxy)quinazolin-6-yl]-2-[1-(2-methoxyethyl)piperidin-4-ylidene]acetamide Dimethylsulfonate in Rats
12 SD rats (half of them were male and half of them were female, 7-10 weeks old, weighting 200-350 g) were purchased from Beijing Vital River Laboratory Animal Technology Co., Ltd., and reared in Animal House, GLP Center, Taiping Road No. 27 courtyard. Production License Number of Beijing Vital River Laboratory Animal Technology Co., Ltd. is SCXK (Beijing) 2009-0002.
Blood (about 0.5 ml) was drawn with glass capillary from the orbital venous plexus at […], 1 h, 2 h, 3 h, 4 h, 6 h, 8 h, 12 h, and 24 h after dosing to each group of animals according to the administration scheme, and put into a heparinized centrifuge tube. The tube was gently shaken up and down, then centrifuged at 3000 r/min for […] at 4° C. The plasma was separated. 50 μl of the plasma was pipetted into a centrifuge tube (5 ml), then 50% methanol aqueous solution (50 μl ) and thienorphine-D4 isotope (50 μl) as an internal standard were added thereto and vortexed. A solution of methanol:acetonitrile=1:3 (volume ratio) was added, vortexed for 30 s so as to mix thoroughly. The resulting mixture was centrifuged at 3000 r/min for 5 mM 500 μL of the supernatant was taken out, to which 500 μl of 20% methanol solution was added for serial dilution. The mixture was vortexed for 30 s so as to mix thoroughly. The mixture was centrifuged at 13000 r/min for 5 mM, and […], of the supernatant was injected for LC/MS/MS assay.
Liquid phase conditions: A: aqueous solution (5 mmol/L ammonium acetate, 0.2% formic acid), B: methanol; column temperature 25° C.; injection volume: 10 μL; gradient elution.
MS conditions: ion source: Turbo Ionspray (ESI+); detection mode: MRM; electrical parameters: compound 1: m/z 544.2-457.1, CE (collision energy): 36.5.
The main pharmacokinetic parameters and oral bioavailability results were calculated by using DAS2.0 (statistical moment).
The pharmacokinetic parameters of statistical moments (n=6) for a single intravenous injection of 5.0 mg/kg in rats
The pharmacokinetic parameters of statistical moments (n=6) for a single intragastric administration of 5.0 mg/kg in rats
Method for the calculation of bioavailability: F=(AUCig×Div)/(AUCiv×Dig)×100%
wherein D is dose; AUC: the area under the plasma drug concentration-time curve; ig represents intragastric administration; and iv represents intravenous injection administration.

[3] = SD rats, single intragastric administration of 5.0 mg/kg, n=6
[4] = SD rats, single intravenous injection of 5.0 mg/kg, n=6
[5] = both sexes, rat, plasma, po, SD rats, single intragastric administration of 5.0 mg/kg, n=6
[6] = both sexes, rat, plasma, SD rats, single intravenous injection of 5.0 mg/kg, n=6

COCCOc1cc2ncnc(Nc3ccc(F)c(Cl)c3)c2cc1NC(=O)C=C1CCN(CCOC)CC1.CS(=O)(=O)O [Compound 3, N-[4-(3-chloro-4-fluorophenylamino)-7-(2-methoxyethoxy)quinazolin-6-yl]-2-[1-(2-methoxyethyl)piperidin-4-ylidene]acetamide dimethylsulfonate]
pIC50 [1]: 5.37 | F (bioavailability) ([2]; SD rats, 5 mg/kg ig vs 5 mg/kg iv): 57% | CLz/F [2, 3]: 4.55 L/h/kg | t½z [2, 3]: 5.83 h | CLz [2, 4]: 2.63 L/h/kg | t½z [2, 4]: 4.06 h | bioavailability ([2]; both sexes, SD, rat, plasma, oral, 5 mg/kg, 5 mg/kg ig vs 5 mg/kg iv, read-out: F (bioavailability)): 56.9% | AUC(0-inf) [2, 5]: 902 ng·h/mL | AUC(0-t) [2, 5]: 782 ng·h/mL | Cmax [2, 5]: 75.2 ng/mL | Tmax [2, 5]: 3.33 h | Vd/F ([2]; both sexes, rat, plasma, po, SD rats, single intragastric administration of 5.0 mg/kg, n=6, read-out: Vz/F): 36.9 L/kg | AUC(0-inf) [2, 6]: 1460 ng·h/mL | AUC(0-t) [2, 6]: 1370 ng·h/mL | Cmax [2, 6]: 1220 ng/mL | Tmax [2, 6]: 0.02 h | Vd ([2]; both sexes, rat, plasma, SD rats, single intravenous injection of 5.0 mg/kg, n=6, read-out: Vz): 15.2 L/kg
